Experimental data: patent US4536402A, “Vinylogous carboxamides” (Dr. Karl Thomae Gesellschaft mit beschranter Haftung, priority 1982, dated 1985)
Read-outs that look alike come from different tables or passages of the source.

What was measured:
[1] = test system: tonic extensor spasm in the back legs of male mice subjected to maximum electric shock; test: Anticonvulsant activity in mice: inhibition of tonic extensor spasm after maximum electric shock; type: in vivo, male SPF mice (Chbb:NMRI); conditions: Mus musculus, oral
Method: The anticonvulsant activity was tested by measuring the inhibition of tonic extensor spasm in the back legs of male mice subjected to maximum electric shock.
The test animals used were male SPF mice (Chbb:NMRI) weighing from 20-26 gm which had access to standard food and drinking water up to one hour before the oral administration of the test substance.
The test was carried out using the method described by Swinyard, Brown and Goodman (J. Pharmacol. Exp. Ther. 106, 319, [1952]). The electric shock apparatus was constructed in accordance with the specifications provided by Woodbury and Davenport (Arch. Int. Pharmacodyn. 92, 97, [1952]). The electrical stimuli were administered to the animals' temples above their eyes, through steel ball electrodes covered with chamois and moistened with 0.9% NaCl solution. The stimuli were administered using alternating current, 50 Hz and 50 mA, with a duration of 0.2 sec.
The substance to be tested was suspended in 1% tylose mucilage and administered orally in a volume of 0.1 ml/10 gm body weight of the mice, each dosage being administered to 10 mice. The animals were given the shocks 30, 150 and 300 minutes after the administration of the test substance, and the ED50 values were determined graphically or by using the method of Litchfield and Wilcoxon (J. Pharmacol. Exp. Ther. 96, 99, [1949]) from the dosage which protects 50% of the animals from the tonic extension spasm of the rear extremities.

[2] = test system: fatty and cartilaginous tissue (kidney fat and sternum); test: Tests for yellow coloration of fatty and cartilaginous tissue in the rat; type: in vivo, male rats, Chbb:THOM (SPF)
Method: The yellow coloration of fatty and cartilaginous tissue following the oral administration of 50 and 400 mg/kg of compound E and compound A once a day over a period of 51/2 weeks was investigated. The compounds were homogeneously suspended in 1.5% tylose by several hours' stirring. The compounds were administered through an esophageal tube. The volume administered was about 1.4 ml. 9 to 11 male rats [of the Chbb:THOM (SPF) strain] with a body weight of 263±10 gm were used for each dose. At different times, animals were taken from the four treated groups and one control group and the kidney fat and sternum were removed after the animal had been bled from the abdominal aorta.

[3] = test system: tonic extensor spasms in the back legs of male rats subjected to maximum electric shock; test: Anticonvulsant activity in rats: inhibition of tonic extensor spasms after maximum electric shock; type: in vivo, male SPF rats (Chbb:THOM); conditions: for % protected / animals protected: N=6, one hour
Method: The anticonvulsant activity was tested by measuring the inhibition of tonic extensor spasms in the back legs of male rats subjected to maximum electric shock.
The test animals used were male SPF rats (Chbb:THOM) weighing from 100-120 gm which had access to standard food and drinking water up to one hour before the oral administration of the test substance.
The test was carried out using the method described by Swinyard, Brown and Goodman (J. Pharmacol. Exp. Ther. 106, 319, [1952]). The electric shock apparatus was constructed in accordance with the specifications provided by Woodbury and Davenport (Arch. Int. Pharmacodyn. 92, 97 [1952]). The electrical stimuli were applied to the temples above the eyes, using moistened steel ball electrodes. The parameters of the stimuli were as follows: alternating current 50 Hz, 50 mA, duration of stimulus 0.2 sec. In all the control animals, clonic and then tonic extension spasm of the extremities occurred; the latter can be prevented by means of effective anticonvulsant agents.
The substance to be tested was suspended in 2% tylose mucilage and administered orally, in a volume of 1 ml/100 gm body weight of the rat, in dosages of 1.56, 3.125, 6.25 and 12.5 mg/kg, each dose being administered to 6 rats. One hour later, the animals were subjected to electric shock and the ED50 was calculated as the dosage which protected 50% of the animals against tonic extension spasms in the rear extremities, with confidence limits for a 5% probability of error.

mice = test: Approximate acute toxicity in mice, p.o.; type: in vivo; conditions: for Number of animals which died in 14 days: mice
Source text: (§1) Approximate acute toxicity in mice, compound A, p.o.

[4] = Approximate acute toxicity in mice, p.o.; type: in vivo; conditions: in vivo; mouse, oral, 14 days
Source text: as §1

rat = test: Acute toxicity in the rat, p.o.; type: in vivo; conditions: for Animals which died in 14 days: N=10
Source text: (§2) Acute toxicity in the rat, compound A, p.o.

[5] = Acute toxicity in the rat, p.o.; type: in vivo; conditions: in vivo; for mortality at 336 h: N=10, read-out: Animals which died in 14 days, %
Source text: as §2

[6] = test system: fatty and cartilaginous tissue (kidney fat and sternum); conditions: known compound, general statement; cited from earlier work
[7] = 0.5 h, shock 30 minutes after administration
[8] = 2.5 h, shock 150 minutes after administration
[9] = 5 h, shock 300 minutes after administration
[10] = 50 mg/kg oral once a day, 17 days
[11] = 50 mg/kg oral once a day, 36 days
[12] = 50 mg/kg oral once a day, 38 days
[13] = 50 mg/kg oral once a day, 39 days
[14] = 400 mg/kg oral once a day, 2 days
[15] = 400 mg/kg oral once a day, 4 days
[16] = 400 mg/kg oral once a day, 9 days
[17] = 400 mg/kg oral once a day, 17 days
[18] = 400 mg/kg oral once a day, 36 days
[19] = 400 mg/kg oral once a day, 38 days
[20] = 400 mg/kg oral once a day, 39 days

## N/C(=C1\C(=O)c2ccccc2[S+]1[O-])c1ccccc1Cl (centres unmarked) [B, (E)-2-[(amino)-2-chlorophenylmethylene]-benzo[b]thiophen-3(2H)-one-1-oxide]
[1]; [7]
  ED50: 8.1 mg/kg
[1]; [8]
  ED50: 7.4 mg/kg
[1]; [9]
  ED50: 8.3 mg/kg

## CCN/C(=C1\C(=O)c2ccccc2[S+]1[O-])c1ccccc1 (centres unmarked) [C, (E)-2-[(ethylamino)phenylmethylene]-benzo[b]thiophen-3(2H)-one-1-oxide]
[1]; [7]
  ED50: 17.1 mg/kg
[1]; [8]
  ED50: 61 mg/kg
[1]; [9]
  ED50: 93.9 mg/kg

## N/C(=C1\C(=O)c2ccccc2[S+]1[O-])c1ccccc1 (centres unmarked) [Compound A, (E)-2-[(amino)phenylmethylene]-benzo[b]thiophen-3(2H)-one-1-oxide]
[2]; [10]
  Number of animals with yellow kidney fat and sternum (number of animals dissected in brackets): 0 (1) animals
[2]; [11]
  Number of animals with yellow kidney fat and sternum (number of animals dissected in brackets): 0 (1) animals
[2]; [12]
  Number of animals with yellow kidney fat and sternum (number of animals dissected in brackets): 0 (1) animals
[2]; [13]
  Number of animals with yellow kidney fat and sternum (number of animals dissected in brackets): 0 (6) animals
[2]; [14]
  Number of animals with yellow kidney fat and sternum (number of animals dissected in brackets): 0 (1) animals
[2]; [15]
  Number of animals with yellow kidney fat and sternum (number of animals dissected in brackets): 0 (1) animals
[2]; [16]
  Number of animals with yellow kidney fat and sternum (number of animals dissected in brackets): 0 (1) animals
[2]; [17]
  Number of animals with yellow kidney fat and sternum (number of animals dissected in brackets): 0 (1) animals
[2]; [18]
  Number of animals with yellow kidney fat and sternum (number of animals dissected in brackets): 0 (1) animals
[2]; [19]
  Number of animals with yellow kidney fat and sternum (number of animals dissected in brackets): 0 (1) animals
[2]; [20]
  Number of animals with yellow kidney fat and sternum (number of animals dissected in brackets): 0 (2) animals
[1]; [7]
  ED50: 12.5 mg/kg
[1]; [8]
  ED50: 35 mg/kg
[1]; [9]
  ED50: 88 mg/kg
[3]; 1.56 mg/kg p.o.
  % protected: 0%
  animals protected: 0 animals
[3]; 3.125 mg/kg p.o.
  % protected: 67%
  animals protected: 4 animals
[3]; 6.25 mg/kg p.o.
  % protected: 83%
  animals protected: 5 animals
[3]; 12.5 mg/kg p.o.
  % protected: 100%
  animals protected: 6 animals
[3]; Rattus norvegicus, 1 h, oral, one hour, read-out: ED50 (confidence limits, p≤0.05)
  ED50: 3.25 mg/kg
mice; 500 mg/kg p.o., N=10
  Number of animals which died in 14 days: 0 animals
mice; 1000 mg/kg p.o., N=16
  Number of animals which died in 14 days: 1 animals
mice; 1410 mg/kg p.o., N=10
  Number of animals which died in 14 days: 0 animals
mice; 2000 mg/kg p.o., N=10
  Number of animals which died in 14 days: 2 animals
mice; 4000 mg/kg p.o., N=10
  Number of animals which died in 14 days: 1 animals
mice; mouse, in vivo, po
  tolerance: well tolerated
[4]
  LD50 at 336 h: > 4000 mg/kg
rat; 1000 mg/kg p.o.
  Animals which died in 14 days: 0 animals
rat; 2000 mg/kg p.o.
  Animals which died in 14 days: 4 animals
rat; 4000 mg/kg p.o.
  Animals which died in 14 days: 7 animals
rat; in vivo, po
  toxic effects: only had toxic effects in very large dosages
[5]; oral, 14 days, read-out: LD50 (confidence limits, p≤0.05)
  LD50 at 336 h: 2600 mg/kg
[5]; po, 1000 mg/kg p.o.
  mortality at 336 h: 0%
[5]; po, 2000 mg/kg p.o.
  mortality at 336 h: 40%
[5]; po, 4000 mg/kg p.o.
  mortality at 336 h: 70%
[5]; po, LD50 / ED50, read-out: average toxic dose relative to average therapeutic dose
  therapeutic index (LD50/ED50): 800

## N/C(=C1/Sc2ccccc2C1=O)c1ccccc1 [Compound E, (E)-2-[(amino)phenylmethylene]-benzo[b]thiophen-3(2H)-one]
[6]
  undesirable side effect: yellow coloration of fatty and cartilaginous tissue: strong yellow coloration
[2]; [10]
  Number of animals with yellow kidney fat and sternum (number of animals dissected in brackets): 0 (1) animals
[2]; [11]
  Number of animals with yellow kidney fat and sternum (number of animals dissected in brackets): 0 (1) animals
[2]; [12]
  Number of animals with yellow kidney fat and sternum (number of animals dissected in brackets): 0 (1) animals
[2]; [13]
  Number of animals with yellow kidney fat and sternum (number of animals dissected in brackets): 0 (6) animals
[2]; [14]
  Number of animals with yellow kidney fat and sternum (number of animals dissected in brackets): 0 (1) animals
[2]; [15]
  Number of animals with yellow kidney fat and sternum (number of animals dissected in brackets): 0 (1) animals
[2]; [16]
  Number of animals with yellow kidney fat and sternum (number of animals dissected in brackets): 0 (1) animals
[2]; [17]
  Number of animals with yellow kidney fat and sternum (number of animals dissected in brackets): 1 (1) animals
  degree of yellow coloration of kidney fat and sternum: very slight
[2]; [18]
  Number of animals with yellow kidney fat and sternum (number of animals dissected in brackets): 1 (1) animals
  degree of yellow coloration of kidney fat and sternum: marked
[2]; [19]
  Number of animals with yellow kidney fat and sternum (number of animals dissected in brackets): 1 (1) animals
  degree of yellow coloration of kidney fat and sternum: marked
[2]; [20]
  Number of animals with yellow kidney fat and sternum (number of animals dissected in brackets): 5 (5) animals
  degree of yellow coloration of kidney fat and sternum: marked
[2]; 400 mg/kg, from the 17th day p.a.
  yellow coloration of the kidney fat and sternum: slight at first but became marked later
